Common to all, as to assay: NCI anticancer screen, dose series, 48 h
The test system of test [1] is DMS 273 small cell lung.
The test system of test [2] is MCF7 breast.
Test [3] has as its system A549 NSCLC.
In test [4] the test system is M19-MEL melanoma.
Test [5] concerns SF-268 CNS.
In test [6] the test system is EKVX NSCLC.
Test [7] deals with DLD-1 colon.
For test [8], the system named is MOLT-4 leukemia.
The test system of test [9] is LOX IMVI melanoma.
Test [10] concerns SNB-78 CNS.
In test [11] the test system is HCT-15 colon.

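Tested at 5 concentrations; 48 h exposure; 96-well plates; endpoints linearly interpolated, else capped at highest concentration. At the TGI there is no net growth.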 Bounds are passed on as bounds.

Regarding `Cc1c2cnccc2c(C)c2c1c1ccccc1n2CCCCCCNCc1ccccc1`, the TGI in test [1] worked out at 2.47 µM; in [2] it was 3.22 µM; in test [3], 3.74 µM; in test [4], 3.95 µM; in [5] it was 2.76 µM; in test [6], 3.94 µM. The TGI in test [7] turned out to be 2.92 µM; in [8], 0.7 µM; in test [9], 3.81 µM; in test [10] it was 5.08 µM; in test [11], 3.25 µM.

In the case of `CN1CCC(CN2c3ccccc3Sc3ccccc32)CC1`, the TGI in test [1] came out at 26.2 µM; in [3], 28.4 µM; in [4] it was 26.4 µM; in test [5], 29 µM; in test [6], 27.5 µM; in test [7], 28.3 µM. In addition, the TGI was 32.9 µM in test [8], 26.4 µM in test [9], 30 µM in test [10] and 32.4 µM in test [11].

For `O=C(O)c1cn2c3c(cc(N4CCN(CCO)CC4)cc3c1=O)SCC2`, the TGI in test [1], in [2], in [3], in test [4], in test [5] and in test [6] was over 100 µM each time. In addition, the TGI in [7], in test [8], in test [9], in test [10] and in [11] was over 100 µM throughout.

The values above are taken from PubChem BioAssay (NCI).
